Test results taken from BindingDB's records for doi:10.7270/Q2W957K6 (Pcmd, 2008).
Counter-ions that a name gives are not always drawn.

Target: Coagulation factor XI (Homo sapiens, UniProt P03951)
Assay: human FXIa inhibitor potency, dose response, biochemical (AID 679)

Chain of Coagulation factor XI (P03951 19-387 limits assumed): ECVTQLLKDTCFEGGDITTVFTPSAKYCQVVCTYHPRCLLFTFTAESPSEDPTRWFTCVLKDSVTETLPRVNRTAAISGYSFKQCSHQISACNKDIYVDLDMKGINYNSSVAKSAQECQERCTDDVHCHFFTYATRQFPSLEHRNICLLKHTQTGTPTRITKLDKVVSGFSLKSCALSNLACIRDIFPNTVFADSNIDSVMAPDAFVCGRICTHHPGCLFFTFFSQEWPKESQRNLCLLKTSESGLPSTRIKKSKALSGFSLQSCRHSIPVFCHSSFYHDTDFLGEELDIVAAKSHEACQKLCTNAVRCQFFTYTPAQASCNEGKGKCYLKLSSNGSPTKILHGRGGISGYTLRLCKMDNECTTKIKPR
Chain of Coagulation factor XI (P03951 388-625 limits assumed): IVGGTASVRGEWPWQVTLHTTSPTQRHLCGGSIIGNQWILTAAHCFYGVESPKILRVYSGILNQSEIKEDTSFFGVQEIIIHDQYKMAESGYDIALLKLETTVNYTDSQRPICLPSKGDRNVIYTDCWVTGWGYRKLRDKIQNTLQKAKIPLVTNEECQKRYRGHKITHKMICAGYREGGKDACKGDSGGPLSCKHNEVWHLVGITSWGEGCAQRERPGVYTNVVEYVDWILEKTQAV

| SMILES | IC50 |
| --- | --- |
| O=c1nc(-c2ccccc2)c2cc(Cl)ccc2[nH]1 | > 50 µM |
| O=S(=O)(Nc1cccc2nsnc12)c1ccccc1 | 9.3 µM |
| COc1ccc(S(=O)(=O)N2CCC(C(=O)N3CCc4ccccc4C3)CC2)cc1Cl | 6.26 µM |
| COc1ccc(Cn2nnnc2C(c2ccccc2Cl)N2CCC(C(N)=O)CC2)cc1 (centres undefined) | > 50 µM |
| O=C(NC(C(=O)c1ccccc1)n1c(=O)cc[nH]c1=S)c1ccccc1 (centres undefined) | > 50 µM |
| CNCCCc1ccccc1 | > 50 µM |
| COc1ccc(CC(=O)NCc2ccc3c(c2)OCO3)cc1 | > 50 µM |
| Cc1ccc(NC(=O)CCn2cccc2)cc1 | > 50 µM |
| CCCC1CCc2c(sc(N)c2C(N)=O)C1 (centres undefined) | > 50 µM |
| CCN(CC)CCNC(=O)C(C)c1nn(C)c(=O)c2ccccc12 (centres undefined) | > 50 µM |
| N#Cc1cc2c(nc1SCC(=O)Nc1sc3c(c1C#N)CCC3)CCC2 | > 50 µM |
| OCCCn1c(-c2ccccc2)nc(=S)c2c1CCCC2 | > 50 µM |
| O=C(CCSc1nnc2ccc3ccccc3n12)Nc1ccc(F)cc1 | > 50 µM |
| N#Cc1ccc(NC(=O)COC(=O)CNC(=O)C2CCCCC2)cc1 | > 50 µM |
| O=C(NCc1ccccc1)C1CCCN(S(=O)(=O)c2cccc3nonc23)C1 (centres undefined) [1-(2,1,3-benzoxadiazol-4-ylsulfonyl)-N-benzylpiperidine-3-carboxamide] | > 50 µM |
| Cc1ccc(C(=O)n2nc(-c3cccnc3)nc2N)cc1 [1-(4-methylbenzoyl)-3-(3-pyridinyl)-1H-1,2,4-triazol-5-amine] | > 50 µM |
| O=C(c1cn(-c2ccccc2)nc1-c1ccncc1)n1nnc2ccccc21 [1-{[1-phenyl-3-(4-pyridinyl)-1H-pyrazol-4-yl]carbonyl}-1H-1,2,3-benzotriazole] | 0.707 µM |
| CCn1nc(CC(=O)Nc2nnc(CC(=O)N3CCCC3)s2)c2ccccc2c1=O [2-(3-ethyl-4-oxo-1-phthalazinyl)-N-[5-[2-oxo-2-(1-pyrrolidinyl)ethyl]-1,3,4-thiadiazol-2-yl]acetamide] | > 50 µM |
| Cn1c(SCC(=O)NC2CCCCC2)nnc1-c1cccc(N)c1 [2-[5-(3-Amino-phenyl)-4-methyl-4H-[1,2,4]triazol-3-ylsulfanyl]-N-cyclohexyl-acetamide] | > 50 µM |
| CCC(CO)NCc1ccc(OC2CCCC2)cc1 (centres undefined) [2-[(4-cyclopentyloxyphenyl)methylamino]butan-1-ol;hydrochloride] | > 50 µM |
| Cc1ccccc1C(=O)N=c1sccn1C [2-methyl-N-(3-methyl-1,3-thiazol-2-ylidene)benzamide] | > 50 µM |
| O=c1c(-c2cc3ccccc3o2)[n+]([O-])c2ccccc2n1OCc1ccccn1 [3-(1-benzofuran-2-yl)-1-(2-pyridinylmethoxy)-2(1H)-quinoxalinone 4-oxide] | > 50 µM |
| CCCc1nc2ccccc2c(=O)n1-c1ccc(OC)cc1 [3-(4-Methoxy-phenyl)-2-propyl-3H-quinazolin-4-one] | > 50 µM |
| O=c1cccc2n1CC1CC2CN(S(=O)(=O)c2ccccc2)C1 (centres undefined) [3-Benzenesulfonyl-1,2,3,4,5,6-hexahydro-1,5-methano-pyrido[1,2-a][1,5]diazocin-8-one] | > 50 µM |
| COc1cc(OC)cc(-c2nnc(SCc3cccc(C(=O)O)c3)o2)c1 [3-[[5-(3,5-dimethoxyphenyl)-1,3,4-oxadiazol-2-yl]sulfanylmethyl]benzoic acid] | > 50 µM |
| O=C(CCCN1C(=O)c2ccccc2C1=O)NCC1CCCO1 (centres undefined) [4-[1,3-bis(oxidanylidene)isoindol-2-yl]-N-(oxolan-2-ylmethyl)butanamide] | 14.6 µM |
| COc1cc(OC)c2c(N)c(C#N)c(C(F)(F)C(F)(F)F)nc2c1 [4-azanyl-5,7-dimethoxy-2-[1,1,2,2,2-pentakis(fluoranyl)ethyl]quinoline-3-carbonitrile] | > 50 µM |
| O=C(Nc1ccccc1C(=O)N1CCOCC1)c1ccc(F)cc1 [4-fluoro-N-[2-[4-morpholinyl(oxo)methyl]phenyl]benzamide] | 21.4 µM |
| COc1ccc(OCCSc2nc[nH]n2)cc1 [5-[2-(4-methoxyphenoxy)ethylsulfanyl]-1H-1,2,4-triazole] | > 50 µM |
